Experimental data from patent EP1780283A1, “Trophic conversion of obligate photographic algae through metabolic engineering” (MARTEK BIOSCIENCES CORPORATION, priority 2000, dated 2001).
Read-outs that look alike come from different tables or passages of the source.

Tests used:
[1] = tested on: human Glut1 glucose transporter (Glut1, from human erythrocytes), expressed in P. tricornutum transformants Glut-13 and Glut-17; experiment: Glucose uptake kinetics (D-14C-glucose) of glut1 containing P. tricornutum transformants; type: cell-based, Phaeodactylum tricornutum; details: cell line Glut-13; 5x10^-4 of Cytochalasin B (unit not given)
[2] = tested on: Nitzschia alba; experiment: Antibiotic sensitivity of diatoms on solid media; type: cell-based
Protocol: (§1) The diatoms Phaeodactylum tricornutum, Cylindrotheca fusiformis, Cyclotella cryptica and Nitzschia alba were extensively tested for sensitivity to a series of antibiotics for which resistance genes are available, and the lowest concentrations which completely abrogate growth were determined for each antibiotic (Table C). […] These include antibiotics such as G418, Hygromycin, Kanamycin and Spectinomycin, which are routinely utilized for selection of other eukaryotic organisms.
(§2) Cells of each diatom species were plated on solid media at salinity equivalents of 25-100% I.O. media, with a gradient of antibiotic concentrations. After 2 weeks of illumination the growth of the cells was assessed and the concentration of antibiotic required for cell death was determined. (Table D). Table C. Effect of antibiotics on the growth of selected diatoms. Values represent the lowest concentration of the antibiotic per ml required for cell death or the highest concentration tested.

[3] = tested on: Phaeodactylum tricornutum; experiment: Antibiotic sensitivity of diatoms on solid media; type: cell-based; details: for lowest concentration of antibiotic per ml required for cell death or the lowest concentration tested: reduced salinity
Protocol: as §1
(§3) The effective concentration range of the antibiotic in most cases was lowered by a factor of 10.
as §2
(§4) Table D. Effect of antibiotics on the growth of selected diatoms in media with reduced salinity. The relative percentage of salinity verses normal seawater of the medium is given in parentheses. Antibiotic levels are given as the lowest concentration of antibiotic per ml required for cell death or the lowest concentration tested.

[4] = tested on: Cylindrotheca fusiformis; experiment: Antibiotic sensitivity of diatoms on solid media; type: cell-based; details: for lowest concentration of antibiotic per ml required for cell death or the lowest concentration tested: reduced salinity
Protocol: as §1, §3, §2, §4

[5] = tested on: Cyclotella cryptica; experiment: Antibiotic sensitivity of diatoms on solid media; type: cell-based; details: for lowest concentration of antibiotic per ml required for cell death or the lowest concentration tested: reduced salinity, 10% of normal seawater
Protocol: as §1, §3, §2, §4

[6] = N. alba, solid media, 100% I.O. media, 2 weeks of illumination
[7] = P. tricornutum, solid media, 100% I.O. media, 2 weeks of illumination
[8] = C. fusiformis, solid media, 100% I.O. media, 2 weeks of illumination
[9] = C. cryptica, solid media, 100% I.O. media, 2 weeks of illumination
[10] = P. tricornutum, 50% of normal seawater
[11] = C. fusiformis, 25% of normal seawater
[12] = C. fusiformis, 50% of normal seawater
[13] = P. tricornutum, 25% of normal seawater

## C=C1C(C)C2C(Cc3ccccc3)NC(=O)C23OC(=O)C=CC(O)CCCC(C)CC=CC3C1O (centres unmarked) [Cytochalasin B]
[1]
  glucose uptake in the presence of Cytochalasin B: reduced to an undetectable level

## CN[C@@H]1[C@@H](O)[C@@H](O[C@@H]2[C@@H](O)[C@H](O[C@H]3O[C@H]([C@@H](C)O)[C@@H](O)[C@H](O)[C@H]3N)[C@@H](N)C[C@H]2N)OC[C@]1(C)O [G418]
[2]; [6]
  lowest concentration of the antibiotic per ml required for cell death or the highest concentration tested: > 500 mg mg per ml
[3]; [7]
  lowest concentration of the antibiotic per ml required for cell death or the highest concentration tested: > 1 mg mg per ml
[4]; [8]
  lowest concentration of the antibiotic per ml required for cell death or the highest concentration tested: > 1 mg mg per ml
[5]; [9]
  lowest concentration of the antibiotic per ml required for cell death or the highest concentration tested: 250 mg mg per ml

## CN[C@@H]1C[C@H](N)[C@@H](O)[C@H](O[C@H]2O[C@H](CO)[C@H](O)[C@@H]3O[C@@]4(O[C@@H]23)O[C@H]([C@H](N)CO)[C@H](O)[C@H](O)[C@H]4O)[C@H]1O [Hygromycin]
[2]
  lowest concentration of the antibiotic per ml required for cell death or the highest concentration tested: > 500 mg
[3]
  lowest concentration of the antibiotic per ml required for cell death or the highest concentration tested: > 1 mg
[4]
  lowest concentration of the antibiotic per ml required for cell death or the highest concentration tested: 500 mg
[5]
  lowest concentration of the antibiotic per ml required for cell death or the highest concentration tested: > 500 mg

## Cc1c(N)nc([C@H](CC(N)=O)NC[C@H](N)C(N)=O)nc1C(=O)N[C@H](C(=O)N[C@H](C)[C@@H](O)[C@H](C)C(=O)N[C@H](C(=O)NCCC1=N[C@@H](c2nc(C(=O)NCCCCN=C(N)N)cs2)CS1)[C@@H](C)O)[C@@H](O[C@@H]1O[C@@H](CO)[C@@H](O)[C@H](O)[C@@H]1O[C@H]1O[C@H](CO)[C@@H](O)[C@H](OC(N)=O)[C@@H]1O)c1cnc[nH]1 [Zeocin]
[2]; [6]
  lowest concentration of the antibiotic per ml required for cell death or the highest concentration tested: > 250 mg mg per ml
[3]; [10]
  lowest concentration of antibiotic per ml required for cell death or the lowest concentration tested: 25 mg (50%) mg per ml
[3]; [7]
  lowest concentration of the antibiotic per ml required for cell death or the highest concentration tested: 50 mg mg per ml
[4]; [11]
  lowest concentration of antibiotic per ml required for cell death or the lowest concentration tested: 100 mg (25%) mg per ml
[4]; [12]
  lowest concentration of antibiotic per ml required for cell death or the lowest concentration tested: 250 mg (50%) mg per ml
[4]; [8]
  lowest concentration of the antibiotic per ml required for cell death or the highest concentration tested: > 250 mg mg per ml
[5]; C. cryptica
  lowest concentration of antibiotic per ml required for cell death or the lowest concentration tested: < 5 mg (10%) mg per ml
[5]; [9]
  lowest concentration of the antibiotic per ml required for cell death or the highest concentration tested: 250 mg mg per ml

## Bleomycin
[3]; [7]
  lowest concentration of the antibiotic per ml required for cell death or the highest concentration tested: > 50 mg mg per ml
[4]; [8]
  lowest concentration of the antibiotic per ml required for cell death or the highest concentration tested: > 50 mg mg per ml

## Neomycin
[2]; [6]
  lowest concentration of the antibiotic per ml required for cell death or the highest concentration tested: > 1 mg mg per ml
[3]; [7]
  lowest concentration of the antibiotic per ml required for cell death or the highest concentration tested: > 1 mg mg per ml
[4]; [8]
  lowest concentration of the antibiotic per ml required for cell death or the highest concentration tested: > 1 mg mg per ml
[5]; [9]
  lowest concentration of the antibiotic per ml required for cell death or the highest concentration tested: > 1 mg mg per ml

## Nourseothricin
[2]; [6]
  lowest concentration of the antibiotic per ml required for cell death or the highest concentration tested: > 250 mg mg per ml
[3]; [13]
  lowest concentration of antibiotic per ml required for cell death or the lowest concentration tested: 10 mg (25%) mg per ml
[3]; [10]
  lowest concentration of antibiotic per ml required for cell death or the lowest concentration tested: 25 mg (50%) mg per ml
[3]; [7]
  lowest concentration of the antibiotic per ml required for cell death or the highest concentration tested: 250 mg mg per ml
[4]; [11]
  lowest concentration of antibiotic per ml required for cell death or the lowest concentration tested: < 10 mg (25%) mg per ml
[4]; [12]
  lowest concentration of antibiotic per ml required for cell death or the lowest concentration tested: 50 mg (50%) mg per ml
[4]; [8]
  lowest concentration of the antibiotic per ml required for cell death or the highest concentration tested: > 250 mg mg per ml
[5]; C. cryptica
  lowest concentration of antibiotic per ml required for cell death or the lowest concentration tested: < 5 mg (10%) mg per ml
[5]; [9]
  lowest concentration of the antibiotic per ml required for cell death or the highest concentration tested: >250 mg mg per ml

## Phleomycin
[2]; [6]
  lowest concentration of the antibiotic per ml required for cell death or the highest concentration tested: > 50 mg mg per ml
[3]; [13]
  lowest concentration of antibiotic per ml required for cell death or the lowest concentration tested: < 5 mg (25%) mg per ml
[3]; [10]
  lowest concentration of antibiotic per ml required for cell death or the lowest concentration tested: < 5 mg (50%) mg per ml
[3]; [7]
  lowest concentration of the antibiotic per ml required for cell death or the highest concentration tested: 5 mg mg per ml
[4]; [11]
  lowest concentration of antibiotic per ml required for cell death or the lowest concentration tested: < 5 mg (25%) mg per ml
[4]; [12]
  lowest concentration of antibiotic per ml required for cell death or the lowest concentration tested: 25 mg (50%) mg per ml
[4]; [8]
  lowest concentration of the antibiotic per ml required for cell death or the highest concentration tested: 25 mg mg per ml
[5]; C. cryptica
  lowest concentration of antibiotic per ml required for cell death or the lowest concentration tested: < 5 mg (10%) mg per ml
[5]; [9]
  lowest concentration of the antibiotic per ml required for cell death or the highest concentration tested: 25 mg mg per ml
